Columns and labels:
cyclophilin A (CypA) = cyclophilin A (CypA) (Homo sapiens, UniProt P62937); conditions: array probed by fluorescently labelled CypA, FIG. 11
L929 cells = test: Adhesion of L929 cells to peptides synthesized as array; type: cell-based; conditions: array without removing the lipophilic group, FIG. 16
Excerpt: There were synthesized cell adhesive peptide RGDSP (SEQ ID NO: 180) and its mutant GGDSP (SEQ ID NO: 179) as array and investigated their effects on the adhesion to L929 cells. As the chitosan hydrogel coating provides a favorable surface for the adhesion of many types of cells, including L929 cells, the array has been synthesized without removing the lipophilic group. […] (FIG. 16) Therefore, the array technology can be used not only for protein-based high throughput screening, but also for developing novel biomaterials as well as cellular assays.

streptavidin [1] = biological target: T1, streptavidin (Streptomyces avidinii, UniProt P22629); test: Ligand array probed by fluorescently labelled streptavidin; type: binding; conditions: FIG. 10
Excerpt: To increase the coupling yield, each coupling step was repeated two times. Same procedure was used in all amide bond formation reactions. After a capping step using 5% acetic anhydride/2% DIPEA, Fmoc was deprotected by immersing the glass slide in piperidine solution (DMF:ethanol 1:1). All amino groups not in the spotted area were acetylated in the first capping step. Therefore, no amide bond formation would be possible in these area in the following synthesis. The array was then probed by fluorescently labelled streptavidin or CypA (FIGS. 10 and 11). […] At this screening condition, the protein cannot distinguish between pM and low nM binders, while it can distinguish these two strong binders from the weaker µM binder iminobiotin.

streptavidin [2] = biological target: T1, streptavidin; conditions: order of magnitude only; cited from earlier work
calcineurin = test: Array incubated with fluorescently labelled calcineurin; type: binding; conditions: FIG. 13
Description: In order to probe protein-peptide interactions, a peptide was synthesized on the amphiphilic surface. The known calcineurin-binding peptide PVIVIT (SEQ ID NO: 13) and CsA1-COOH were synthesized on the surface. The glass slide was then incubated with fluorescently labelled calcineurin. […] Therefore, the on-demand peptide array synthesis technology can be used to investigate specific protein-peptide interaction.

T1 sequence (P22629 25-183): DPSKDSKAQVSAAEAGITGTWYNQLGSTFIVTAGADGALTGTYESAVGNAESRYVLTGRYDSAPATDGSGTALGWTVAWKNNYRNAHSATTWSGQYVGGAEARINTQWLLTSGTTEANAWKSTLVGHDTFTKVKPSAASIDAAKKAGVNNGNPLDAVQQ
cyclophilin A (CypA), sequence (P62937 whole entry, species assumed): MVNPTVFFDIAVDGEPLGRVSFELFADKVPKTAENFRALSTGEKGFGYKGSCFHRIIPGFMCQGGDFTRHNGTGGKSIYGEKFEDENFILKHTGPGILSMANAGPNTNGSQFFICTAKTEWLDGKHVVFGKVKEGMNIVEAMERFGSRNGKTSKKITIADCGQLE

Compound	adhesion to L929 cells (L929 cells)	Kd values / dissociation constant to streptavidin (streptavidin [2])	also measured
O=C(O)CCCC[C@@H]1SC[C@@H]2NC(=O)N[C@@H]21 [Biotin, biotin]	–	–	binding of CypA to spot (cyclophilin A (CypA)): not
RGDSP: cell adhesive peptide RGDSP	strong adhesion	–	–
N=C1N[C@H]2[C@H](CS[C@H]2CCCCC(=O)O)N1 [iminobiotin]	–	µM	fluorescent signal on spot (streptavidin [1]): much weaker than those of biotin and desthiobiotin
PVIVIT: known calcineurin-binding peptide PVIVIT	–	–	binding of calcineurin to spot (calcineurin): can bind specifically
GGDSP: mutant of cell adhesive peptide RGDSP	poor adhesion	–	–
C[C@@H]1NC(=O)N[C@@H]1CCCCCC(=O)O [desthiobiotin]	–	low nM	–
